Reference: patent US8962694B2, “Composition for pest control” (priority 2006, dated 2015)
Values joined by “and” are separate entries in the source; they are usually repeats but may differ in a detail not shown here. Equal entries are not always repeated.

What was measured:
[1] = tested on: cane toads; assay: Trial 1 two-step test: ethanol anaesthesia, then pesticidal agent applied to dorsal surface; format: in vivo, Bufo marinus
Description: Testing of the efficacy of various compositions for the purpose of cane toad extermination was conducted in two trials. The first trial comprised a “two-step” test in which subject toads were initially exposed to an anaesthetic agent and, once anaesthetised, exposed to a pesticidal agent (i.e. killing agent) in the presence of a suitable carrier. This two-step approach was undertaken to ensure the humane extermination of the animals.
Subject animals were therefore exposed to an approximate total dose of 3-4 ml of materials, comprising 2-3 gm of an anaesthetising agent (i.e. ethanol) and up to 1.0 ml of the particular pesticidal agent to be tested. A mist of ethanol was applied (“primary treatment”) to the dorsal surface of the toad from a hand-held spray bottle. When the toad was stupefied, as judged by the inability of the animal to right itself onto its ventral surface when turned onto its back (generally 10-15 minutes after treatment), the test pesticidal agent was administered (“secondary treatment”) onto the animal's dorsal surface by means of a micropipette. The test pesticidal agent included chloroxylenol (i.e. 4-chloro 3,5-dimethyl phenol) in different carriers including ethanol, isopropanol, propanol and dilute solutions thereof. Animals were monitored continuously for their response to the treatment.

[2] = tested on: cane toads; assay: Trial 2 single spray application of test pesticidal compositions; format: in vivo, Bufo marinus
Excerpt: The tests conducted in the second trial involved a single spray application of various test pesticidal compositions on cane toads. A hand-operated spray bottle was used to deliver a single standard dose of 3.0-3.3 gm of the particular test pesticidal agent to the dorsal surface of each animal. Animals were subsequently continuously monitored for their response to the treatment.

[3] = tested on: cane toads
[4] = primary 100% ethanol 2.1-2.9 ml, secondary 5% chloroxylenol in 40% isopropanol/60% water, 1.0 ml, medium toads (90.0-139.9 gm)
[5] = primary 100% ethanol 2.1-2.9 ml, secondary 5% chloroxylenol in 40% isopropanol/60% water, 1.0 ml, small toads (45.0-89.9 gm)
[6] = primary 100% ethanol 2.1-2.9 ml, secondary 30% chloroxylenol in ethanol, 0.2 ml, small toads (45.0-89.9 gm)
[7] = primary 100% ethanol 2.1-2.9 ml, secondary 30% chloroxylenol in ethanol, 0.5 ml, small toads (45.0-89.9 gm)
[8] = primary 100% ethanol 2.1 ml, secondary 15% chloroxylenol in 60% isopropanol/40% water, 1.0 ml, small toads (45.0-89.9 gm)
[9] = large toads (≧140 gm), carrier 40% ethanol with 60% isopropanol, chloroxylenol content 3.75%
[10] = large toads (≧140 gm), carrier 40% ethanol with 60% isopropanol, chloroxylenol content 5.00%
[11] = large toads (≧140 gm), carrier 60% ethanol with 40% isopropanol, chloroxylenol content 5.00%
[12] = large toads (≧140 gm), carrier 70% ethanol with 30% isopropanol, chloroxylenol content 2.00%
[13] = large toads (≧140 gm), carrier 70% ethanol with 30% isopropanol, chloroxylenol content 2.50%
[14] = large toads (≧140 gm), carrier 80% ethanol with 20% isopropanol, chloroxylenol content 2.50%
[15] = large toads (≧140 gm), carrier 80% ethanol with 20% isopropanol, chloroxylenol content 3.75%
[16] = large toads (≧140 gm), carrier 80% ethanol with 20% isopropanol, chloroxylenol content 5.00%
[17] = medium size toads (90.0-139.9 gm), carrier 40% ethanol with 60% isopropanol, chloroxylenol content 3.75%
[18] = medium size toads (90.0-139.9 gm), carrier 40% ethanol with 60% isopropanol, chloroxylenol content 5.00%
[19] = medium size toads (90.0-139.9 gm), carrier 60% ethanol with 40% isopropanol, chloroxylenol content 5.00%
[20] = medium size toads (90.0-139.9 gm), carrier 70% ethanol with 30% isopropanol, chloroxylenol content 2.00%
[21] = medium size toads (90.0-139.9 gm), carrier 70% ethanol with 30% isopropanol, chloroxylenol content 2.50%
[22] = medium size toads (90.0-139.9 gm), carrier 80% ethanol with 20% isopropanol, chloroxylenol content 2.50%
[23] = medium size toads (90.0-139.9 gm), carrier 80% ethanol with 20% isopropanol, chloroxylenol content 3.75%
[24] = medium size toads (90.0-139.9 gm), carrier 80% ethanol with 20% isopropanol, chloroxylenol content 5.00%
[25] = pooled chloroxylenol concentrations and ethanol/propanol carriers (FIGS. 1 and 2)
[26] = small toads (45.0-89.9 gm), carrier 60% ethanol with 40% isopropanol, chloroxylenol content 2.50%
[27] = small toads (45.0-89.9 gm), carrier 60% ethanol with 40% isopropanol, chloroxylenol content 3.75%
[28] = small toads (45.0-89.9 gm), carrier 60% ethanol with 40% isopropanol, chloroxylenol content 5.00%
[29] = small toads (45.0-89.9 gm), carrier 70% ethanol in water, chloroxylenol content 2.50%
[30] = small toads (45.0-89.9 gm), carrier 70% ethanol with 30% isopropanol, chloroxylenol content 2.50%
[31] = small toads (45.0-89.9 gm), carrier 70% ethanol with 30% isopropanol, chloroxylenol content 3.75%
[32] = small toads (45.0-89.9 gm), carrier 70% ethanol with 30% isopropanol, chloroxylenol content 5.00%
[33] = small toads (45.0-89.9 gm), carrier 70% ethanol with 30% methanol, chloroxylenol content 2.50%
[34] = small toads (45.0-89.9 gm), carrier 80% ethanol with 20% isopropanol, chloroxylenol content 2.50%
[35] = small toads (45.0-89.9 gm), carrier 80% ethanol with 20% isopropanol, chloroxylenol content 3.75%
[36] = small toads (45.0-89.9 gm), carrier 80% ethanol with 20% isopropanol, chloroxylenol content 5.00%
[37] = small toads (45.0-89.9 gm), carrier 98% ethanol with 2% citral, chloroxylenol content 2.50%
[38] = small toads (45.0-89.9 gm), carrier 100% ethanol, chloroxylenol content 0.50%, spray 3.0-3.3 gm
[39] = small toads (45.0-89.9 gm), carrier 100% ethanol, chloroxylenol content 2.50%
[40] = small toads (45.0-89.9 gm), carrier 100% ethanol, chloroxylenol content 5.00%

Structure (SMILES): Cc1cc(O)cc(C)c1Cl [chloroxylenol, 4-chloro 3,5-dimethyl phenol]
- ethanol-anaesthetised toads exterminated ([1]; chloroxylenol in carriers (ethanol alone or dilutions of propanol), all toads treated (12)): 12
- mean time to death [1, 4]: 28 min
- number died/number tested [1, 4]: 1/1
- mean time to death [1, 5]: 30 min
- number died/number tested [1, 5]: 5/5
- mean time to death [1, 6]: 71 min
- number died/number tested [1, 6]: 2/2
- mean time to death [1, 7]: 64 min
- number died/number tested [1, 7]: 2/2
- mean time to death [1, 8]: 24 min
- number died/number tested [1, 8]: 2/2
- onset of death ([1]; two-step tests of Example 1): 16 to 102 min
- predicted time to kill toads of up to 200 gm weight ([2]; 2.5% chloroxylenol, from fitted line of FIG. 2): less than 60 minutes
- large toads killed/treated ([2]; compositions with 2.5% or more chloroxylenol): 31/32
- medium-sized toads killed ([2]; compositions with 2.5% or more chloroxylenol, all toads treated (33)): 33
- mean time to death [2, 9]: 52 min
- number died/number tested [2, 9]: 5/5
- mean time to death [2, 10]: 47 min
- number died/number tested [2, 10]: 4/4
- mean time to death [2, 11]: 39 min
- number died/number tested [2, 11]: 7/7
- number died/number tested ([2]; large toads (≧140 gm), carrier 70% ethanol with 30% isopropanol, chloroxylenol content 1.25%): 0/7;
- mean time to death [2, 12]: 50 min
- number died/number tested [2, 12]: 7/7
- mean time to death [2, 13]: 60 min
- number died/number tested [2, 13]: 7/7
- mean time to death [2, 14]: 91 min
- number died/number tested [2, 14]: 1/1
- mean time to death [2, 15]: 34 min
- number died/number tested [2, 15]: 3/4
- mean time to death [2, 16]: 53 min
- number died/number tested [2, 16]: 4/4
- mean time to death [2, 17]: 48 min
- number died/number tested [2, 17]: 4/4
- mean time to death [2, 18]: 46 min
- number died/number tested [2, 18]: 4/4
- mean time to death [2, 19]: 28 min
- number died/number tested [2, 19]: 7/7
- mean time to death [2, 20]: 65 min
- number died/number tested [2, 20]: 5/5
- mean time to death [2, 21]: 39 min
- number died/number tested [2, 21]: 5/5
- mean time to death [2, 22]: 37 min
- number died/number tested [2, 22]: 5/5
- mean time to death [2, 23]: 31 min
- number died/number tested [2, 23]: 4/4
- mean time to death [2, 24]: 52 min
- number died/number tested [2, 24]: 4/4
- tests in which a lethal outcome was achieved ([2]; of 93 in total, three chloroxylenol concentrations in four propanol-ethanol carriers): 92
- large toads died within 40 minutes (number) [2, 25]: 12/32
- large toads died within 40 minutes (percent) [2, 25]: 37%
- large toads died within 60 minutes (number) [2, 25]: 23/32
- large toads died within 60 minutes (percent) [2, 25]: 72%
- medium toads died within 40 minutes (number) [2, 25]: 25/33
- medium toads died within 40 minutes (percent) [2, 25]: 75%
- medium toads died within 60 minutes (number) [2, 25]: 30/33
- medium toads died within 60 minutes (percent) [2, 25]: 91%
- small toads killed in <30 minutes (number) [2, 25]: 22/28
- small toads killed in <30 minutes (percent) [2, 25]: 78%
- time to death, all medium sized toads [2, 25]: ≤ 102 min
- time to death, large toads, all but one [2, 25]: ≤ 120 min
- time to death, all small toads ([2]; pooled: 2.5%, 3.75%, 5% chloroxylenol in four ethanol/propanol carriers (FIGS. 1 and 2)): ≤ 40 min
- mean time to death [2, 26]: 27 min
- number died/number tested [2, 26]: 3/3
- mean time to death [2, 27]: 19 min
- number died/number tested [2, 27]: 3/3
- mean time to death [2, 28]: 21 min
- number died/number tested [2, 28]: 5/5
- mean time to death [2, 29]: 46 min
- number died/number tested [2, 29]: 3/3
- mean time to death [2, 30]: 26 min
- number died/number tested [2, 30]: 3/3
- mean time to death [2, 31]: 26 min
- number died/number tested [2, 31]: 3/3
- mean time to death [2, 32]: 22 min
- number died/number tested [2, 32]: 3/3
- mean time to death [2, 33]: 38 min
- number died/number tested [2, 33]: 3/3
- mean time to death [2, 34]: 25 min
- number died/number tested [2, 34]: 2/2
- mean time to death [2, 35]: 22 min
- number died/number tested [2, 35]: 4/4
- mean time to death [2, 36]: 16 min
- number died/number tested [2, 36]: 2/2
- mean time to death [2, 37]: 25 min
- number died/number tested [2, 37]: all three toads tested were killed and 3/3
- mean time to death [2, 38]: 62 min
- number died/number tested [2, 38]: one third and 1/3
- mean time to death [2, 39]: 28 min
- number died/number tested [2, 39]: 3/3
- mean time to death [2, 40]: 22 min
- number died/number tested [2, 40]: 3/3
- mean times to death ([2]; small toads, ethanol as sole carrier or mixtures of ethanol and propanol, at least 2.5% chloroxylenol): less than 30 minutes

Structure (SMILES): CCO [ethanol]
- lag period before onset of anaesthesia (toad stupefied, unable to right itself) ([1]; mist of ethanol on dorsal surface, 2-3 gm): 10 to 15 min
- anaesthetic effect of topical application ([3]; toads of all sizes): rapid- and long-acting anaesthetic
- lethality of ethanol alone ([3]; very small toads = less than about 45 gm): death only in some (but not all) very small toads
